System: Mycobacterium tuberculosis
Assay: Antimycobacterial activity against Mycobacterium tuberculosis H37Rv after 6 days by luciferase reporter gene assay
Type: functional, organism-based
Settings: 144 h

Row | Compound | IC50 | IC90 | IC99
1 | FC(F)(F)c1ccc(Cl)c(N=NNc2cc(C(F)(F)F)ccc2Cl)c1 | 97.5 µM | > 100 µM | > 100 µM
2 | FC(F)(F)c1cc(Cl)ccc1/N=N/Nc1ccc(Cl)cc1C(F)(F)F | 93 µM | > 100 µM | > 100 µM
3 | COc1ccc(/C=C/C(=O)N(/N=N/c2cc(C(F)(F)F)ccc2Cl)c2cc(C(F)(F)F)ccc2Cl)c(OC)c1 | 72.3 µM | > 100 µM | > 100 µM
4 | COc1ccc(/C=C/C(=O)N(/N=N/c2ccc(Cl)c(C(F)(F)F)c2)c2ccc(Cl)c(C(F)(F)F)c2)c(OC)c1 | 52 µM | 80.8 µM | 84.4 µM
5 | COc1cc(/C=C/C(=O)N(/N=N/c2ccc(Cl)c(C(F)(F)F)c2)c2ccc(Cl)c(C(F)(F)F)c2)cc(OC)c1 | 71.3 µM | > 100 µM | > 100 µM
6 | Fc1ccc(C(F)(F)F)cc1/N=N/Nc1cc(C(F)(F)F)ccc1F | 58.9 µM | > 100 µM | > 100 µM
7 | N#Cc1c(F)cccc1/N=N/Nc1cccc(F)c1C#N | 62.3 µM | > 100 µM | > 100 µM
8 | Fc1ccc(/N=N/Nc2ccc(F)cc2C(F)(F)F)c(C(F)(F)F)c1 | 85.5 µM | > 100 µM | > 100 µM
9 | N#Cc1cc(/N=N/Nc2ccc(F)c(C#N)c2)ccc1F | > 100 µM | > 100 µM | > 100 µM
10 | Clc1ccc(/N=N/Nc2ccc(Cl)cc2Cl)c(Cl)c1 | > 100 µM | > 100 µM | > 100 µM
11 | COc1ccc(/C=C/C(=O)N(/N=N/c2ccc(Cl)cc2C(F)(F)F)c2ccc(Cl)cc2C(F)(F)F)c(OC)c1 | 83.1 µM | > 100 µM | > 100 µM
12 | NNC(=O)c1ccncc1 [ISONIAZID] | 0.04 µM | 0.11 µM | 0.13 µM

From ChEMBL document CHEMBL3232765, “Anti-mycobacterial activity of 1,3-diaryltriazenes” (Eur J Med Chem, 2014)
